Data as given in US20260347336A1, “PRODRUGS, FORMULATIONS AND METHODS THEREOF” (OCULAR THERAPEUTIX, INC., priority 2022, published 2026).
≈ marks a conversion by molar mass, not a printed value.

How the values were obtained:
[1] = Solubility of axitinib and prodrug in phosphate buffer saline pH 7.4, 24 hour at 22 °C (Example 2); assay type: physicochemical
Protocol: Solubility testing was performed with the following test items and conditions: • Test items: axitinib (99.99% purity by HPLC); axitinib-N-mPEG-succinoyloxymethyl prodrug (93.6% purity by HPLC) • Test media: phosphate buffer saline pH 7.4 • Incubation condition: 24 hour at 22 °C with continuous shaking • Test concentration: 1 mg/mL • Data analysis: Solubility of test item was determined by HPLC analysis with calibration curve

[2] = Stability in phosphate buffer saline (Example 8); assay type: physicochemical; conditions: PBS, pH-7.40; for remaining at 24 h / remaining at 72 h / remaining at 168 h: phosphate buffer saline, pH 7.4, read-out: % remaining compared to Day 0; for remaining at 24 h: Day 1; for remaining at 72 h: Day 3; for remaining at 168 h: Day 7
Protocol: Axitinib prodrugs of the present invention were tested for stability in phosphate buffer saline (PBS, pH-7.40).

[3] = cited from earlier work
[4] = Solubility of axitinib prodrugs in phosphate buffer saline (Example 7); assay type: physicochemical; conditions: phosphate buffer saline (PBS, pH-7.40)
Protocol: Axitinib prodrugs of the present invention were tested for solubility in phosphate buffer saline (PBS, pH-7.40).

[5] = Particle size after micronization (Example 6); assay type: physicochemical; conditions: micronized
Text: The micronization of the axitinib-N-m (PEG)2-oxymethyl prodrug obtained in Example 6 in a dry dispersion was D90=12.4 μm; D50=3.6 μm and D10=0.6 μm and dispersed in water was D90=12.2 μm; D50=5.2 μm and D10=1.1 μm.

[6] = phosphate buffer saline pH 7.4, 24 hour at 22 °C, continuous shaking, test concentration 1 mg/mL, HPLC

Molecule	% remaining compared to Day 0 [2]	remaining at 24 h [2]	remaining at 72 h [2]	remaining at 168 h [2]	solubility ([4]; pH 7.4, read-out: Solubility)	solubility [4]	further results
CNC(=O)c1ccccc1Sc1ccc2c(/C=C/c3ccccn3)n[nH]c2c1 [Axitinib, axitinib, reference compound]	100.00%	96.7%	96.2%	91.8%			solubility at 24 h [1, 6]: < 0.78 µg/mL; literature reported solubility [3]: about 0.2 mcg/mL
CNC(=O)c1ccccc1Sc1ccc2c(/C=C/c3ccccn3)nn(COC(=O)CCC(=O)O)c2c1 [Axitinib-N-Succinoyloxymethyl Prodrug]					217 µg/mL (≈ 421 µM)		
CNC(=O)c1ccccc1Sc1ccc2c(/C=C/c3ccccn3)nn(COC(=O)CCOC)c2c1 [Axitinib-N-m(PEG)1-oxymethyl prodrug]	100.00%	38.8%	6.7%	5%		Not Soluble	
CNC(=O)c1ccccc1Sc1ccc2c(/C=C/c3ccccn3)nn(COC(=O)CCOCCOC)c2c1 [Axitinib-N-m(PEG)2-oxymethyl prodrug]	100.00%	45.9%	30.5%	16.9%	1.1 µg/mL (≈ 2.01 µM)		D10 ([5]; dispersed in water): 1.1 μm; D50 ([5]; dispersed in water): 5.2 μm; D90 ([5]; dispersed in water): 12.2 μm; D10 ([5]; dry dispersion): 0.6 μm; D50 ([5]; dry dispersion): 3.6 μm; D90 ([5]; dry dispersion): 12.4 μm
CNC(=O)c1ccccc1Sc1ccc2c(/C=C/c3ccccn3)nn(COC(=O)CCOCCOCCOC)c2c1 [Axitinib-N-m(PEG)3-oxymethyl prodrug]	100.00%	53.9%	24%	12.7%	6.16 µg/mL (≈ 10.4 µM)		
axitinib-N-mPEG-succinoyloxymethyl [N-mPEG succinoyloxymethyl Prodrug]						99.37 µg/mL	solubility [1, 6]: 99.37 µg/mL; solubility enhancement of prodrug ([1]; versus axitinib): ~ 500 ×
